Reference: the NIST ThermoML archive (doi:10.1016/j.jct.2012.08.014)
± gives the expanded uncertainty stated by the source.

Settings: Liquid, Vibrating tube method

CCC(O)CO (configuration not stated) [1,2-butanediol]
mass density [kg/m3]
Settings	278.15 K	288.15 K	298.15 K	308.15 K	318.15 K	328.15 K	338.15 K	348.15 K	358.15 K
100 kPa	1013.4 ± 2.4	1006.2 ± 2.4	998.7 ± 2.4	991.1 ± 2.4	983.4 ± 2.4	975.7 ± 2.4	967.8 ± 2.4	959.7 ± 2.4	951.3 ± 2.4
1000 kPa	1013.7 ± 2.4	1006.5 ± 2.4	999.1 ± 2.4	991.5 ± 2.4	983.8 ± 2.4	976.2 ± 2.4	968.3 ± 2.4	960.2 ± 2.4	952 ± 2.4
5000 kPa	1015.7 ± 2.4	1008.6 ± 2.4	1001.2 ± 2.4	993.7 ± 2.4	986.1 ± 2.4	978.6 ± 2.4	970.7 ± 2.4	962.8 ± 2.4	954.6 ± 2.4
10000 kPa	1018.1 ± 2.4	1011.1 ± 2.4	1003.8 ± 2.4	996.5 ± 2.4	988.9 ± 2.4	981.5 ± 2.4	973.9 ± 2.4	966.2 ± 2.4	958.1 ± 2.4
15000 kPa	1020.5 ± 2.4	1013.5 ± 2.4	1006.3 ± 2.4	999.1 ± 2.4	991.7 ± 2.4	984.4 ± 2.4	976.8 ± 2.4	969.2 ± 2.4	961.4 ± 2.4
20000 kPa	1022.8 ± 2.4	1015.9 ± 2.4	1008.8 ± 2.4	1001.6 ± 2.4	994.3 ± 2.4	987.2 ± 2.4	979.8 ± 2.4	972.2 ± 2.4	964.5 ± 2.4
25000 kPa	1025 ± 2.4	1018.2 ± 2.4	1011.3 ± 2.4	1004.1 ± 2.4	997 ± 2.4	989.9 ± 2.4	982.6 ± 2.4	975.2 ± 2.4	967.5 ± 2.4
30000 kPa	1027.2 ± 2.4	1020.5 ± 2.4	1013.6 ± 2.4	1006.5 ± 2.4	999.4 ± 2.4	992.5 ± 2.4	985.3 ± 2.4	978 ± 2.4	970.5 ± 2.4
35000 kPa	1029.2 ± 2.4	1022.7 ± 2.4	1015.9 ± 2.4	1008.9 ± 2.4	1001.9 ± 2.4	995.1 ± 2.4	987.9 ± 2.4	980.7 ± 2.4	973.5 ± 2.4
40000 kPa	1031.2 ± 2.4	1024.7 ± 2.4	1018.2 ± 2.4	1011.2 ± 2.4	1004.4 ± 2.4	997.6 ± 2.4	990.5 ± 2.4	983.4 ± 2.4	976.2 ± 2.4
45000 kPa	1033.3 ± 2.4	1026.7 ± 2.4	1020.3 ± 2.4	1013.5 ± 2.4	1006.7 ± 2.4	999.9 ± 2.4	993.1 ± 2.4	986.1 ± 2.4	978.8 ± 2.4
50000 kPa	1035.3 ± 2.4	1028.8 ± 2.4	1022.5 ± 2.4	1015.7 ± 2.4	1009 ± 2.4	1002.2 ± 2.4	995.5 ± 2.4	988.6 ± 2.4	981.4 ± 2.4
55000 kPa	1037.3 ± 2.4	1030.8 ± 2.4	1024.5 ± 2.4	1017.9 ± 2.4	1011.3 ± 2.4	1004.7 ± 2.4	997.9 ± 2.4	991.1 ± 2.4	984 ± 2.4
60000 kPa	1039.2 ± 2.4	1033 ± 2.4	1026.7 ± 2.4	1020 ± 2.4	1013.5 ± 2.4	1006.9 ± 2.4	1000.3 ± 2.4	993.4 ± 2.4	986.5 ± 2.4

OCCO [1,2-ethanediol]
mass density [kg/m3]
Settings	278.15 K	288.15 K	298.15 K	308.15 K	318.15 K	328.15 K	338.15 K	348.15 K	358.15 K
100 kPa	1122.4 ± 2.4	1115.8 ± 2.4	1109 ± 2.4	1102.2 ± 2.4	1095.2 ± 2.4	1088.2 ± 2.4	1080.9 ± 2.4	1073.6 ± 2.4	1066.1 ± 2.4
1000 kPa	1122.6 ± 2.4	1116 ± 2.4	1109.2 ± 2.4	1102.4 ± 2.4	1095.4 ± 2.4	1088.3 ± 2.4	1081.2 ± 2.4	1073.9 ± 2.4	1066.2 ± 2.4
5000 kPa	1124.1 ± 2.4	1117.6 ± 2.4	1110.9 ± 2.4	1104.1 ± 2.4	1097.1 ± 2.4	1090.2 ± 2.4	1083.1 ± 2.4	1075.8 ± 2.4	1068.2 ± 2.4
10000 kPa	1126 ± 2.4	1119.5 ± 2.4	1112.9 ± 2.4	1106.1 ± 2.4	1099.2 ± 2.4	1092.3 ± 2.4	1085.4 ± 2.4	1078.1 ± 2.4	1070.7 ± 2.4
15000 kPa	1127.8 ± 2.4	1121.5 ± 2.4	1114.9 ± 2.4	1108.2 ± 2.4	1101.3 ± 2.4	1094.4 ± 2.4	1087.6 ± 2.4	1080.4 ± 2.4	1073.1 ± 2.4
20000 kPa	1129.6 ± 2.4	1123.3 ± 2.4	–	–	–	–	1089.8 ± 2.4	1082.7 ± 2.4	1075.4 ± 2.4
25000 kPa	1131.4 ± 2.4	1125.2 ± 2.4	1118.7 ± 2.4	1112.1 ± 2.4	1105.3 ± 2.4	1098.6 ± 2.4	1091.9 ± 2.4	1084.9 ± 2.4	1077.8 ± 2.4
30000 kPa	1133.1 ± 2.4	1127 ± 2.4	1120.6 ± 2.4	1114 ± 2.4	1107.3 ± 2.4	1100.6 ± 2.4	1094 ± 2.4	1087 ± 2.4	1079.9 ± 2.4
35000 kPa	1134.8 ± 2.4	1128.8 ± 2.4	1122.4 ± 2.4	1115.9 ± 2.4	1109.3 ± 2.4	–	–	–	1082.1 ± 2.4
40000 kPa	1136.6 ± 2.4	1130.6 ± 2.4	1124.3 ± 2.4	1117.7 ± 2.4	1111.2 ± 2.4	1104.6 ± 2.4	1097.9 ± 2.4	1091.3 ± 2.4	1084.3 ± 2.4
45000 kPa	1138.2 ± 2.4	1132.3 ± 2.4	1126.1 ± 2.4	1119.6 ± 2.4	1113.1 ± 2.4	1106.5 ± 2.4	1099.9 ± 2.4	1093.4 ± 2.4	1086.5 ± 2.4
50000 kPa	1139.9 ± 2.4	1134.1 ± 2.4	1127.8 ± 2.4	1121.4 ± 2.4	1115 ± 2.4	1108.4 ± 2.4	1101.9 ± 2.4	1095.3 ± 2.4	–
55000 kPa	1141.6 ± 2.4	1135.7 ± 2.4	1129.6 ± 2.4	1123.2 ± 2.4	–	–	1103.9 ± 2.4	1097.3 ± 2.4	1090.7 ± 2.4
60000 kPa	1143.3 ± 2.4	1137.4 ± 2.4	1131.3 ± 2.4	1125 ± 2.4	1118.6 ± 2.4	1112.1 ± 2.4	1105.8 ± 2.4	1099.4 ± 2.4	1092.7 ± 2.4
